Data taken from US20020107193A1, “Therapeutic uses for IP3 receptor-mediated calcium channel modulators” (priority 2000, published 2002).

Tests used:
CREB = experiment: EMSA of CREB binding activity in cultured primary cortical neurons; type: cell-based, rat
Protocol: Cerebral cortices were removed from embryonic day 18 Sprague-Dawley rats (Harlan, Indianapolis, Ind.). Cells were dissociated as described previously (Mattson et al., 1995, J. Neurochem. 65:1740-1751.) and were seeded into polyethyleneimine-coated 60 mm culture dishes containing Eagle's Minimum Essential Medium supplemented with 26 mM NaHCO3, 40 mM glucose, 20 mM KCl, 1 mM sodium pyruvate, 10% (v/v) heat-inactivated fetal bovine serum (Sigma, St. Louis, Mo.), and 0.001% gentamycin sulfate. After a 3-5 h incubation period to allow for cell attachment, the medium was replaced with 2 ml of Neurobasal Medium with B27 supplements (GIBCO Life Technologies, Grand Island, N.Y.). Previous observations have shown that greater than 80% of the cells that attach in the first few hours after plating will survive longer than 7 days in Neurobasal Medium with no additional neurotrophic factors. Experimental treatments were performed on 7-to-9-day-old neuronal cultures in which there were approximately 5% contaminating glial cells.
Total cell extracts were prepared as described (Baeuerle and Baltimore, 1988, Cell 53:211-217). Briefly, cells were harvested, washed twice with ice-cold PBS and lysed for 30 min at 4° C. in Totex buffer (20 mM HEPES, pH 7.9, 350 mM NaC1, 20% glycerol, 1% NP-40, 1 mM MgC12, 0.5 mM EDTA, 0.1 mM EGTA, 5 mM DTT, 0.1% PMSF, 1% aprotinin, 4 μg/ml leupeptin). Samples were centrifuged at 14,000× g for 10 min and aliquots of supernatant were collected and stored at −70° C. until taken for assay. The protein content of the extract (supernatant) was measured by Bradford method (BIO-RAD Laboratories, Ercules, Calif., USA). […]
After 20 min at room temperature, reaction products were separated on a 7% non-denaturing polyacrylamide gel. […] Radioactivity of dried gels was detected by exposure to Kodak X-Omat film and images on the developed film were scanned into a computer using a UMAX 1200s scanner. […]
The possible involvement of endoplasmic reticulum pools of intracellular calcium regulated by IP3 receptors in controlling basal levels of NF-κB was investigated using Xestospongin C (XeC) a specific membrane permeable modulator of IP3-mediated Ca^2+release (Gafni et al., 1997, Neuron 19:723-733; Hu et al., 1999, J. Biol. Chem. 274:33995-33998), and thapsigargin (Tg), a specific inhibitor of ER calcium/ATPase (Thastrup et al., 1990, Proc. Natl. Acad. Sci. USA 87:2466-2470; Davidson and Varhol, 1995, J. Biol. Chem. 270:11731-11734.). Cultured primary cortical neurons were treated with either 1 μM XeC, 100 nM Tg or vehicle for 6 h and protein extracts were analyzed for NF-κB binding activity by EMSA electrophoresis.

[1] = tested on: IP3 receptors on microsomes; experiment: Microsome extract (MSE) effect on cytoplasmic NF-κB binding activity; type: biochemical, rat
Protocol: Cerebral cortices from adult female Sprague-Dawley rats were homogenized (20 strokes at 300 rpm) with a Teflon homogenizer in ice-cold buffer containing 1 mM EDTA, 0.32 M sucrose, 0.1 mM dithiothreitol and 1 mM HEPES as described previously (Chen et al., 1998, Diabetes 47:874-81) and cytoplasmic and microsome fractions were isolated by differential centrifugation. Briefly, tissue fragments and cellular debris were removed by centrifugation at 500 g for 10 min and supernatants were centrifuged at 20,000 g for 20 min to pellet intact mitochondria and nuclei. The supernatant was then centrifuged at 100,000 g for 1 h in order to obtain the cytoplasmic fraction and the microsomal pellet enriched in endoplasmic reticulum and golgi membranes. Microsome extracts (MSE) were prepared by suspending microsomes in 1:100 v/v ice-cold buffer and centrifuging at 100,000× g for 1 hr. Microsomes were then re-suspended in 1:2 v/v volume buffer and treated as described below. At the end of the treatment, the suspension was centrifuged at 100,000 g for 1 h, and supernatants were used as MSE. For experiments involving incubation of MSE with cytoplasmic extract, 3 μl of MSE were added to 10 μl cytoplasmic extract and mixtures were incubated at room temperature for 1 h.
[…] After 1 h at room temperature, samples were examined for NF-κB binding activity.
Indeed, the role calcium plays in this paradigm seems to be as an intraluminal signal.

In the case of C1CCC[C@H]2CCCN3CC[C@@H](CCCCCC[C@@H]4CCCN5CC[C@@H](CC1)O[C@@H]45)O[C@@H]23 [XeC, Xestospongin C], the “binding activity of CREB, agent alone” value (CREB; cortical neurons, XeC 30 min pretreatment, 100 ng/ml TNFα 6 h, FIG. 2a) is reported as “neither TNFα nor XeC alone affected the binding activity of CREB”, the CREB binding activity (CREB; cultured primary cortical neurons, 6 h, 1 μM XeC or 100 nM Tg, data not shown) is reported as “slightly augmented CREB binding activity; however, this was not statistically significant” and the “NF-κB stimulating activity of microsomes pretreated then given calcium” value ([1]; XeC pretreatment followed by calcium) is reported as “produced no NF-κB stimulating activity”. The “effect of microsome pretreatment on IP3-induced NF-κB stimulating properties of MSE” value ([1]; XeC pretreatment of microsomes) was “completely abolished this effect”.
